In the series the test system is chick biventer muscle. As to the kind of experiment: Chick biventral experiment: contractile (twitch) responses evoked by electrical field stimulation. Also on record: species or system Gallus domesticus.

This is an account of results in US6613745B1, “Therapeutic molecules derived from snake venom” (National University of Singapore, priority 1997, dated 2003).

“Also recorded” adds a separate entry of the source. Peptide text beside a SMILES is read from it.

In the case of `C[C@@H](O)[C@H](NC(=O)[C@@H]1CCCN1C(=O)[C@H](Cc1ccccc1)NC(=O)[C@@H]1CCCN1C(=O)[C@@H](N)CC(N)=O)C(=O)N[C@@H](Cc1c[nH]c2ccccc12)C(=O)N[C@@H](CCCNC(=N)N)C(=O)N[C@@H](CCCCN)C(=O)N[C@@H](CCCNC(=N)N)C(=O)N1CCC[C@H]1C(=O)NCC(=O)O` [synthesized peptide, Asn-Pro-Phe-Pro-Thr-Trp-Arg-Lys-Arg-Pro-Gly] (H-NPFPTWRKRPG-OH), the “contractile (twitch) response of chick biventer evoked by electrical field stimulation” value (10 μg peptide added, EFS 25 V, 5 Hz×10s, 1 ms pulse width, every 100s, FIG. 1, listed as analgesic peptide) was “no change; also recorded: no effect”. Moreover, the “neurotoxic effect on the neuromuscular junction” value (10 μg peptide, concluded from FIG. 1) was “no neurotoxic effect”.
